Results: EP4635949A1 (Jiangsu NHWA Pharmaceutical Co., Ltd, priority 2022, dated 2024)
Like-named read-outs stand apart in the source and are kept apart here.

Legend:
OX1 receptor = molecular target: T1, OX1 receptor (Homo sapiens, UniProt O43613); experiment: Orexin target function test (Cisbio HTRF IP-one), CHO-K1-OX1 cells, antagonism of EC80 Orexin A; format: cell-based; conditions: CHO-K1-OX1 cells, IP-one; read-out: hOXIR IC50
T1 construct: host or cells: CHO-K1
T1 sequence (O43613 1-425): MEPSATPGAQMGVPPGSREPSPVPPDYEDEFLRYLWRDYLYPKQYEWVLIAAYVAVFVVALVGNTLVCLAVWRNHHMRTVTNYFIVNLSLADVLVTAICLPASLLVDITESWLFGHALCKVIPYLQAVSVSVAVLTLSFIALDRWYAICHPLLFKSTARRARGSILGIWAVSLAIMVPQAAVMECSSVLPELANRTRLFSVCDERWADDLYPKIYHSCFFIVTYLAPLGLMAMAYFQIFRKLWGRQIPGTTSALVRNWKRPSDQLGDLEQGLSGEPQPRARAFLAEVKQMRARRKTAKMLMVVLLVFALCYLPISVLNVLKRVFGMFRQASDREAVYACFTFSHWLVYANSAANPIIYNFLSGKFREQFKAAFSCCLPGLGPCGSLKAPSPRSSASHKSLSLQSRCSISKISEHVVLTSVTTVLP
Description: (§1) Using Cisbio HTRF IP-one kit to detect the changes in IP-one concentration of orexin receptor (OX1/OX2) signaling pathway by microplate reader, and calculating the IC50 value of the compound to evaluate the antagonistic effect of the compound on OX1 and OX2 receptors.
(§2) The cells were centrifuged at 1000 rpm for 5 minutes and the supernatant was discarded. 3 mL of PBS was added, and gently blown with a pipette to mix. After centrifugation at 1000 rpm for 5 minutes again, the supernatant was discarded. […] Based on the antagonistic effect values of the compound samples at different concentrations, the GraphPad Prism software was used to fit the orexin receptor antagonism curve of the compound samples and calculate the IC50.

OX2 receptor = molecular target: T2, OX2 receptor (Homo sapiens, UniProt O43614); experiment: Orexin target function test (Cisbio HTRF IP-one), CHO-K1-OX2 cells, antagonism of EC80 Orexin 2 receptor agonist; format: cell-based; conditions: for IC50: CHO-K1-OX2 cells, IP-one, read-out: hOX2R IC50
T2 construct: host or cells: CHO-K1
T2 sequence (O43614 1-444): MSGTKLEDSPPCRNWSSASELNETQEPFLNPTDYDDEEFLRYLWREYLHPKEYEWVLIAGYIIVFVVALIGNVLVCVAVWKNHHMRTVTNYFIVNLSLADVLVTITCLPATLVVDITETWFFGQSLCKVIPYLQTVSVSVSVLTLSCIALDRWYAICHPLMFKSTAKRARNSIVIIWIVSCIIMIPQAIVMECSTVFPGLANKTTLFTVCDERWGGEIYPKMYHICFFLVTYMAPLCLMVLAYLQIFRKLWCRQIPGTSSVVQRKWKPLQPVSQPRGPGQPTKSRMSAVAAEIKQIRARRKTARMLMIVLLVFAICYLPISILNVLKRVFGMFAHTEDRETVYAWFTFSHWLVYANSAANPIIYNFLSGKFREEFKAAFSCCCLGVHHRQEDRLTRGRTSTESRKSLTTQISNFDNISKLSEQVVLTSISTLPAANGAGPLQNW
Description: as §1, §2

in vivo = conditions: male, SD, rat, plasma
[1] = Blood-brain barrier permeability of the test substance in rats; conditions: male, SD, rat, oral, 30 mg/kg
Description: Twelve male SD rats were randomly divided into 4 groups, with 3 rats in each group. They were fasted for 8 hours before the test and had free access to water. The rats were intragastrically administered with 30 mg/kg of the test substance solution, and 0.3 mL of blood was collected from the jugular venous plexus of the rats before and 0.25 hours after administration. The rats were then anesthetized, the chest cavity was opened, the right atrial appendage was cut, and the blood was rapidly perfused from the back of the left ventricle. When the outflowing liquid was transparent and bloodless, the perfusion could be stopped, and the brain tissue was removed, dried with filter paper, weighed, and homogenized with an appropriate amount of physiological saline (1:4, v/v) to prepare a brain tissue homogenate. The whole blood sample was centrifuged at 4000 r/min for 10 min to separate the plasma.
The established LC-MS/MS method is used to detect the concentration of the test substance in plasma and brain tissue homogenate. The brain-to-blood ratio (Kb/p) of the test substance can be obtained by dividing the drug concentration in brain tissue by the drug concentration in plasma.

[2] = ratio of OX1R IC50 to OX2R IC50

Row | SMILES | IC50 (OX1 receptor) | IC50 (OX2 receptor) | Selectivity (OX2 receptor; [2]) | AUC(0-t) (in vivo; iv, 1 mg/kg) | Cmax (in vivo; iv, 1 mg/kg) | AUC(0-t) (in vivo; po, 30 mg/kg) | Cmax (in vivo; po, 30 mg/kg) | bioavailability (in vivo; po, 30 mg/kg) | concentration at 0.25 h ([1]; brain) | Kp at 0.25 h ([1]; brain/plasma) | concentration at 0.25 h ([1]; plasma) | Selectivity (OX2 receptor)
1 | CCOc1ccc(C(=O)N2CC3C=C(c4nc(C)cnc4OC)CC3C2)c(-n2nccn2)c1 (stereo not drawn) [Compound 45, [4-ethoxy-2-(2H-1,2,3-triazol-2-yl)phenyl][5-(3-methoxy-6-methylpyrazin-2-yl)-3,3a,4,6a-tetrahydrocyclopenta[c]pyrrol-2(1H)-yl]methanone] | 3 µM | 0.025 µM | 125 | 1.56 µg·h/mL | 2.52 µg/mL | 36 µg·h/mL | 19.6 µg/mL | 77.1% | – | – | – | –
2 | CCOc1ncc(C)nc1C1=CC2CN(C(=O)c3ccc(OC)cc3-n3nccn3)CC2C1 (stereo not drawn) [Compound 46, [5-(3-ethoxy-6-methylpyrazin-2-yl)-3,3a,4,6a-tetrahydrocyclopenta[c]pyrrol-2(1H)-yl][4-methoxy-2-(2H-1,2,3-triazol-2-yl)phenyl]methanone] | – | – | – | – | – | – | – | – | 210 ng/g | 0.43 | 0.485 µg/mL | –
3 | COc1ccc(C(=O)N2CC3C=C(c4nc(C)cnc4OC)CC3C2)c(-c2ncccn2)c1 (stereo not drawn) [Compound 48, [4-methoxy-2-(pyrimidin-2-yl)phenyl][5-(3-methoxy-6-methylpyrazin-2-yl)-3,3a,4,6a-tetrahydrocyclopenta[c]pyrrol-2(1H)-yl]methanone] | 3.25 µM | 0.021 µM | 154 | 0.886 µg·h/mL | 3.31 µg/mL | 10.1 µg·h/mL | 9.41 µg/mL | 37.8% | – | – | – | –
4 | [2H]C([2H])([2H])Oc1ncc(C)nc1C1=CC2CN(C(=O)c3ccc(OC)cc3-n3nccn3)CC2C1 (stereo not drawn) [Compound 58, [4-methoxy-2-(2H-1,2,3-triazol-2-yl)phenyl][5-[3-(methoxy-d3)-6-methylpyrazin-2-yl]-3,3a,4,6a-tetrahydrocyclopentyl[c]pyrrol-2(1H)-yl]methanone] | 1.98 µM | 0.024 µM | 83 | – | – | – | – | – | – | – | – | –
5 | COc1ccc(C(=O)N2CC3C=C(c4nc(CF)cnc4OC)CC3C2)c(-n2nccn2)c1 (stereo not drawn) [Compound 59, [5-[6-(fluoromethyl)-3-methoxypyrazin-2-yl]-3,3a,4,6a-tetrahydrocyclopentyl[c]pyrrol-2(1H)-yl][4-methoxy-2-(2H-1,2,3-triazol-2-yl)phenyl]methanone] | 1.8 µM | 0.017 µM | 106 | – | – | – | – | – | – | – | – | –
6 | COc1ncc(C)nc1C1=CC2CN(C(=O)c3ccc(F)cc3-n3cccn3)CC2C1 (stereo not drawn) [Compound 61, [4-fluoro-2-(1H-pyrazol-1-yl)phenyl][5-(3-methoxy-6-methylpyrazin-2-yl)-3,3a,4,6a-tetrahydrocyclopenta[c]pyrrol-2(1H)-yl]methanone] | 2.1 µM | 0.014 µM | – | 0.737 µg·h/mL | 1.92 µg/mL | 5.4 µg·h/mL | 5.69 µg/mL | 24.4% | – | – | – | 150
7 | Cc1cnc(C#N)c(C2=CC3CN(C(=O)c4ccc(F)cc4-n4nccn4)CC3C2)n1 (stereo not drawn) [Compound 62, 3-[2-[4-fluoro-2-(2H-1,2,3-triazol-2-yl)benzoyl]-1,2,3,3a,4,6a-hexahydrocyclopenta[c]pyrrol-5-yl]-5-methylpyrazine-2-carbonitrile] | 1.65 µM | 0.018 µM | 92 | – | – | – | – | – | – | – | – | –
